# Results as given in patent US11337922B2, “Lipid particle formulations for delivery of RNA and water-soluble therapeutically effective compounds to a target cell” (BioNTech RNA Pharmaceuticals GmbH, priority 2015, dated 2022).
# Test system: Vγ9Vδ2 T cells
# Test: γ9δ2 T cell proliferation/expansion after coculture of ZA-loaded iDCs with PBLs
# Assay type: cell-based, human
# Conditions: 7-day coculture of ZA-loaded iDCs with PBLs
# Description: To check the functionality of the retained compound, ZA, the expansion of γ9δ2 T cells was evaluated after cocultivation of ZA-loaded iDCs with cryopreserved PBLs.
# For evaluation of ex vivo frequency of γ9δ2 T cells freshly isolated PBMCs were stained with anti-CD3, anti-TCR-Vδ2 mABs and analysed via flow cytometry. Therefore, iDCs have been incubated as indicated for 24 h in standard medium (1×10^6 cells/mL) containing 5 μM ZA.
# After loading with ZA, iDCs have been centrifuged and washed with PBS. The coculture of iDCs with PBLs was setup in a ratio of 20 (iDCs): γ9δ2 T cells ex vivo. The medium was supplemented with 10 U/mL IL-2 (Proleukin). After 7-day incubation cells were harvested, washed and stained with anti-CD3, anti-TCR-Vδ2 mABs to evaluate frequency of γ9δ2 T cells and their expansion via flow cytometry. For analysis the expansion rate was determined dividing whole cell amount of γ9δ2 T cells before or after 7-day-cultivation.
smiles,measurement,value
"O=P(O)(O)C(O)(Cn1ccnc1)P(=O)(O)O [free ZA, zoledronic acid]",expansion rate of Vγ9δ2 T cells,about 15 fold
